From patent publication US9226982B2, “Gall bladder imaging agent and its preparation method” (INSTITUTE OF NUCLEAR ENERGY RESEARCH ATOMIC ENERGY COUNCIL, …, priority 2012, dated 2016)

Assays:
ASGPR = molecular target: T1, ASGPR (Mus musculus, UniProt P24721+P34927); assay: Binding strength between carbohydrate chain peptide and mice liver cell (competition with Eu-ASOR, time-resolved fluorescence)
T1 construct: host or cells: mouse liver cells (hepatocytes) cultured on 24-well plates
T1 sequence (P34927 1-284): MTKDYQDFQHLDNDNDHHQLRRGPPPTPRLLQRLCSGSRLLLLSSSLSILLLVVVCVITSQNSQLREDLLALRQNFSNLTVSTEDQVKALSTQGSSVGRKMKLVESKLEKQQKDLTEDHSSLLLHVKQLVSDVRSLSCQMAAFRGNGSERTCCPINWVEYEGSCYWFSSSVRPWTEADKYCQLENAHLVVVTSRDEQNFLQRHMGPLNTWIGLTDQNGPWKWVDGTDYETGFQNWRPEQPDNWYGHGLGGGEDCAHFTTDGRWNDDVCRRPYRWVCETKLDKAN
T1 sequence (P24721 1-301): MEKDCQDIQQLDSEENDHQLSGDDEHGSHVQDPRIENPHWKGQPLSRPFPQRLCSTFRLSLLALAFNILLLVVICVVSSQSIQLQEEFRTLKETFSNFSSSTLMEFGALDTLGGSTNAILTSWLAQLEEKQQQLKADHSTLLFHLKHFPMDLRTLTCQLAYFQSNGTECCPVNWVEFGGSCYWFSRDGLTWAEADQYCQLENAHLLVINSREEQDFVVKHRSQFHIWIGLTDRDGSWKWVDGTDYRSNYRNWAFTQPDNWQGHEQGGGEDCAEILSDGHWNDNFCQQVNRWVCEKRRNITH
From the text: The binding strength between carbohydrate chain peptide and a mice liver cell uses Eu-asialo-orosomucoid (Eu-ASOR) as a reference substance and compares whether carbohydrate chain peptides such as DCM-Lys(ah-GalNAc)3, […] larger binding capacity to a mice liver cell than Eu-ASOR. IC50 (50% inhibitory concentration) represents the binding capacity. Smaller IC50 represents larger binding capacity. Mice liver cells are purchased from Lonza biotechnology company in State of Maryland, which are placed and cultivated on a 24-well plate in advance. Reaction takes place at each well. […] Perform oscillating culture for 1 hours. Use an ammonium-chloride-containing liver cell base culture medium to wash away substances that are not bonded to liver cells. Perform time-resolved fluorescence analysis, namely, add an enhancer (15 μM of β-naphthoyl trifluoroacetone, 50 μM of tri-n-octyl-phosphine oxide, 0.1M of potassium hydrogen phthalate, and 0.1% of Triton X-100 in 0.1M of acetic acid, pH of 3.2). The enhancer forms an Eu chelate with Eu^3+ and emits light of 615 nm when energized by 340 nm. The logarithmic value of the concentration of carbohydrate chain peptide is taken as X-axis, and the emitted fluorescence value is taken as the Y-axis. […] However, the binding between DCM-Lys(Gah-GalNAc)3 and ASGPR is 10 times as large as the binding strength of YEE and YDD.

[1] = in vivo
From the text: Tyrosine-glutamyl-glutamic acid (YEE) and tyrosine-aspartyl-aspartic acid (YDD) are first proposed by Lee et al. (1983). Tyrosine-glutamyl-glutamyl-glutamic acid (YEEE) is an improved invention by Chen et al. (ROC Patent TW1240002, 2000). The binding force between double-chain galactose amino peptide proposed by Lee et al. in 1983 and a liver cell is 1000 times as large as that of single-chain galactose amino peptide. The binding force between triple-chain galactose amino peptide and a liver cell is 10^6 times as large as that of sing-chain galactose amino peptide. Our laboratory has synthesized DTPA-hexa-lactose with a single lysine derivative earlier, which has very high specific radioactivity with the In-111 label and has a very desirable effect of accumulation at the liver in animal experiments. However, our animal experiments have shown that In-111-DTPA-hexa-lactose stays at the liver very stably for at least half an hour, and it is actually not easy to observe changes of absorption of the gall bladder in the entire imaging process. Therefore, In-111-DTPA-hexa-lactose is suitable for use in remaining liver function test or measurement of remaining liver after liver resection, but is not very suitable for use as a gall bladder imaging agent.

## NCCCCCC(=O)N[C@@H](CC(=O)NCCCC[C@@H](C(=O)NCCCCCCO[C@@H]1O[C@H](CO)[C@@H](O[C@@H]2O[C@H](CO)[C@H](O)[C@H](O)[C@H]2O)[C@H](O)[C@H]1O)N(CC(=O)NCCCCCCO[C@@H]1O[C@H](CO)[C@@H](O[C@@H]2O[C@H](CO)[C@H](O)[C@H](O)[C@H]2O)[C@H](O)[C@H]1O)CC(=O)NCCCCCCO[C@@H]1O[C@H](CO)[C@@H](O[C@@H]2O[C@H](CO)[C@H](O)[C@H](O)[C@H]2O)[C@H](O)[C@H]1O)C(=O)NCCCC[C@@H](C(=O)NCCCCCCO[C@@H]1O[C@H](CO)[C@@H](O[C@@H]2O[C@H](CO)[C@H](O)[C@H](O)[C@H]2O)[C@H](O)[C@H]1O)N(CC(=O)NCCCCCCO[C@@H]1O[C@H](CO)[C@@H](O[C@@H]2O[C@H](CO)[C@H](O)[C@H](O)[C@H]2O)[C@H](O)[C@H]1O)CC(=O)NCCCCCCO[C@@H]1O[C@H](CO)[C@@H](O[C@@H]2O[C@H](CO)[C@H](O)[C@H](O)[C@H]2O)[C@H](O)[C@H]1O [AHA-Asp[DCM-Lys(ahLac)3]2]
ASGPR; compared with YEE and YDD
  binding strength to ASGPR compared with YEE and YDD (in words): same binding strength as YEE and YDD

## CC(=O)N[C@H]1[C@H](OCCCCCCNC(=O)CNC(=O)CN(CC(=O)NCC(=O)NCCCCCCO[C@@H]2O[C@H](CO)[C@H](O)[C@H](O)[C@H]2NC(C)=O)[C@@H](CCCCN)C(=O)NCC(=O)NCCCCCCO[C@@H]2O[C@H](CO)[C@H](O)[C@H](O)[C@H]2NC(C)=O)O[C@H](CO)[C@H](O)[C@@H]1O [DCM-Lys(GahGalNAc)3]
ASGPR; compared with YEE and YDD
  binding strength to ASGPR relative to YEE and YDD: 10 times
ASGPR; mice liver cells, 10 nM Eu-ASOR as reference substance, 1 hour culture
  IC50: 1 nM

## O=C(O)CN(CCN(CC(=O)O)CC(=O)O)CCN(CC(=O)O)CC(=O)NCCCCCC(=O)N[C@@H](CC(=O)NCCCC[C@@H](C(=O)NCCCCCCO[C@@H]1O[C@H](CO)[C@@H](O[C@@H]2O[C@H](CO)[C@H](O)[C@H](O)[C@H]2O)[C@H](O)[C@H]1O)N(CC(=O)NCCCCCCO[C@@H]1O[C@H](CO)[C@@H](O[C@@H]2O[C@H](CO)[C@H](O)[C@H](O)[C@H]2O)[C@H](O)[C@H]1O)CC(=O)NCCCCCCO[C@@H]1O[C@H](CO)[C@@H](O[C@@H]2O[C@H](CO)[C@H](O)[C@H](O)[C@H]2O)[C@H](O)[C@H]1O)C(=O)NCCCC[C@@H](C(=O)NCCCCCCO[C@@H]1O[C@H](CO)[C@@H](O[C@@H]2O[C@H](CO)[C@H](O)[C@H](O)[C@H]2O)[C@H](O)[C@H]1O)N(CC(=O)NCCCCCCO[C@@H]1O[C@H](CO)[C@@H](O[C@@H]2O[C@H](CO)[C@H](O)[C@H](O)[C@H]2O)[C@H](O)[C@H]1O)CC(=O)NCCCCCCO[C@@H]1O[C@H](CO)[C@@H](O[C@@H]2O[C@H](CO)[C@H](O)[C@H](O)[C@H]2O)[C@H](O)[C@H]1O [In-111-DTPA-hexa-lactose, metal not drawn]
[1]
  time it stays at the liver very stably: at least half an hour
